Laboratory results taken from patent US12662498B2 (priority 2017, dated 2026).

Tests used:
[1] = ICH stability study of psilocybin batches (appearance, water content, purity, assay); settings: accelerated conditions
[2] = Heat cycling slurry maturation of Psilocybin Pattern A in 24 solvents (visual solubility); also: test concentration or dose not given here

SMILES: CN(C)CCc1c[nH]c2cccc(OP(=O)(O)O)c12 [Polymorph A]
- time stable under accelerated stability testing conditions [1]: 12 months
- Obs. 20° C., 0.4 ml ([2]; 2-Chlorobutane): Susp.
- Obs. 20° C., 0.8 ml ([2]; 2-Chlorobutane): Susp.
- Obs. 20° C., 1.2 ml ([2]; 2-Chlorobutane): Susp.
- Obs. 50° C. ([2]; 2-Chlorobutane, 1.2 ml): Susp.
- Obs. 20° C., 0.4 ml ([2]; 4:1 EtOH/water): Susp.
- Obs. 20° C., 0.8 ml ([2]; 4:1 EtOH/water): Susp.
- Obs. 20° C., 1.2 ml ([2]; 4:1 EtOH/water): Susp.
- Obs. 50° C. ([2]; 4:1 EtOH/water, 1.2 ml): Susp.
- Obs. 20° C., 0.4 ml ([2]; 4:1 IPA/water): Susp.
- Obs. 20° C., 0.8 ml ([2]; 4:1 IPA/water): Susp.
- Obs. 20° C., 1.2 ml ([2]; 4:1 IPA/water): Susp.
- Obs. 50° C. ([2]; 4:1 IPA/water, 1.2 ml): Susp.
- Obs. 20° C., 0.4 ml ([2]; 4:1 THF/water): Susp.
- Obs. 20° C., 0.8 ml ([2]; 4:1 THF/water): Susp.
- Obs. 20° C., 1.2 ml ([2]; 4:1 THF/water): Susp.
- Obs. 50° C. ([2]; 4:1 THF/water, 1.2 ml): Susp.
- Obs. 20° C., 0.4 ml ([2]; Anisole): Susp.
- Obs. 20° C., 0.8 ml ([2]; Anisole): Susp.
- Obs. 20° C., 1.2 ml ([2]; Anisole): Susp.
- Obs. 50° C. ([2]; Anisole, 1.2 ml): Susp.
- Obs. 20° C., 0.4 ml ([2]; Benzotrifluoride): Susp.
- Obs. 20° C., 0.8 ml ([2]; Benzotrifluoride): Susp.
- Obs. 20° C., 1.2 ml ([2]; Benzotrifluoride): Susp.
- Obs. 50° C. ([2]; Benzotrifluoride, 1.2 ml): Susp.
- Obs. 20° C., 0.4 ml ([2]; CHCl3): Susp.
- Obs. 20° C., 0.8 ml ([2]; CHCl3): Susp.
- Obs. 20° C., 1.2 ml ([2]; CHCl3): Susp.
- Obs. 50° C. ([2]; CHCl3, 1.2 ml): Susp.
- Obs. 20° C., 0.4 ml ([2]; CPME): Susp.
- Obs. 20° C., 0.8 ml ([2]; CPME): Susp.
- Obs. 20° C., 1.2 ml ([2]; CPME): Susp.
- Obs. 50° C. ([2]; CPME, 1.2 ml): Susp.
- Obs. 20° C., 0.4 ml ([2]; Chlorobenzene): Susp.
- Obs. 20° C., 0.8 ml ([2]; Chlorobenzene): Susp.
- Obs. 20° C., 1.2 ml ([2]; Chlorobenzene): Susp.
- Obs. 50° C. ([2]; Chlorobenzene, 1.2 ml): Susp.
- Obs. 20° C., 0.4 ml ([2]; Cyclohexane): Susp.
- Obs. 20° C., 0.8 ml ([2]; Cyclohexane): Susp.
- Obs. 20° C., 1.2 ml ([2]; Cyclohexane): Susp.
- Obs. 50° C. ([2]; Cyclohexane, 1.2 ml): Susp.
- Obs. 20° C., 0.4 ml ([2]; EtOAc): Susp.
- Obs. 20° C., 0.8 ml ([2]; EtOAc): Susp.
- Obs. 20° C., 1.2 ml ([2]; EtOAc): Susp.
- Obs. 50° C. ([2]; EtOAc, 1.2 ml): Susp.
- Obs. 20° C., 0.4 ml ([2]; EtOH): Susp.
- Obs. 20° C., 0.8 ml ([2]; EtOH): Susp.
- Obs. 20° C., 1.2 ml ([2]; EtOH): Susp.
- Obs. 50° C. ([2]; EtOH, 1.2 ml): Susp.
- Obs. 20° C., 0.4 ml ([2]; Heptane): Susp.
- Obs. 20° C., 0.8 ml ([2]; Heptane): Susp.
- Obs. 20° C., 1.2 ml ([2]; Heptane): Susp.
- Obs. 50° C. ([2]; Heptane, 1.2 ml): Susp.
- Obs. 20° C., 0.4 ml ([2]; IPA): Susp.
- Obs. 20° C., 0.8 ml ([2]; IPA): Susp.
- Obs. 20° C., 1.2 ml ([2]; IPA): Susp.
- Obs. 50° C. ([2]; IPA, 1.2 ml): Susp.
- Obs. 20° C., 0.4 ml ([2]; MEK): Susp.
- Obs. 20° C., 0.8 ml ([2]; MEK): Susp.
- Obs. 20° C., 1.2 ml ([2]; MEK): Susp.
- Obs. 50° C. ([2]; MEK, 1.2 ml): Susp.
- Obs. 20° C., 0.4 ml ([2]; MIBK): Susp.
- Obs. 20° C., 0.8 ml ([2]; MIBK): Susp.
- Obs. 20° C., 1.2 ml ([2]; MIBK): Susp.
- Obs. 50° C. ([2]; MIBK, 1.2 ml): Susp.
- Obs. 20° C., 0.4 ml ([2]; MeCN): Susp.
- Obs. 20° C., 0.8 ml ([2]; MeCN): Susp.
- Obs. 20° C., 1.2 ml ([2]; MeCN): Susp.
- Obs. 50° C. ([2]; MeCN, 1.2 ml): Susp.
- Obs. 20° C., 0.4 ml ([2]; MeOH): Susp.
- Obs. 20° C., 0.8 ml ([2]; MeOH): Susp.
- Obs. 20° C., 1.2 ml ([2]; MeOH): Susp.
- Obs. 50° C. ([2]; MeOH, 1.2 ml): Susp.
- Obs. 20° C., 0.4 ml ([2]; Nitromethane): Susp.
- Obs. 20° C., 0.8 ml ([2]; Nitromethane): Susp.
- Obs. 20° C., 1.2 ml ([2]; Nitromethane): Susp.
- Obs. 50° C. ([2]; Nitromethane, 1.2 ml): Susp.
- Obs. 20° C., 0.4 ml ([2]; TBME): Susp.
- Obs. 20° C., 0.8 ml ([2]; TBME): Susp.
- Obs. 20° C., 1.2 ml ([2]; TBME): Susp.
- Obs. 50° C. ([2]; TBME, 1.2 ml): Susp.
- Obs. 20° C., 0.4 ml ([2]; THF): Susp.
- Obs. 20° C., 0.8 ml ([2]; THF): Susp.
- Obs. 20° C., 1.2 ml ([2]; THF): Susp.
- Obs. 50° C. ([2]; THF, 1.2 ml): Susp.
- Obs. 20° C., 0.4 ml ([2]; Toluene): Susp.
- Obs. 20° C., 0.8 ml ([2]; Toluene): Susp.
- Obs. 20° C., 1.2 ml ([2]; Toluene): Susp.
- Obs. 50° C. ([2]; Toluene, 1.2 ml): Susp.
- Obs. 20° C., 0.4 ml ([2]; Water): Susp.
- Obs. 20° C., 0.8 ml ([2]; Water): Susp.
- Obs. 20° C., 1.2 ml ([2]; Water): Susp.
- Obs. 50° C. ([2]; Water, 1.2 ml): Solution
- Obs. 20° C., 0.4 ml ([2]; iPrOAc): Susp.
- Obs. 20° C., 0.8 ml ([2]; iPrOAc): Susp.
- Obs. 20° C., 1.2 ml ([2]; iPrOAc): Susp.
- Obs. 50° C. ([2]; iPrOAc, 1.2 ml): Susp.
